# Experimental data as given in patent US20180000085A1, “USE OF PICOLINAMIDE COMPOUNDS WITH FUNGICIDAL ACTIVITY” (DOW AGROSCIENCES LLC, priority 2014, published 2018).
# Experiments:
# [1] = tested on: Zymoseptoria tritici; assay: Leaf blotch of wheat (SEPTTR) disease control on wheat seedlings; assay type: in vivo; design: key to SEPTTR 1DP, HV activity at 100 ppm (% control rating) / SEPTTR 3DC, HV activity at 100 ppm (% control rating) / SEPTTR disease control, 1DP / SEPTTR disease control, 3DC / SEPTTR 1DP disease control rating, HV activity / SEPTTR 3DC disease control rating, HV activity / SEPTTR 3DC, LV activity at 125.1 g/H (% Control rating) / SEPTTR 1DP, LV activity at 125.1 g/H (% Control rating) / SEPTTR 1DP disease control rating, LV activity at 125.1 g/H / SEPTTR 3DC disease control rating, LV activity at 125.1 g/H / SEPTTR 3DC disease control rating, HV activity at 100 ppm / SEPTTR 1DP disease control rating, HV activity at 100 ppm / HV activity at 100 ppm SEPTTR 3DC (disease control rating) / HV activity at 100 ppm SEPTTR 1DP (disease control rating) / LV activity at 125.1 g/H SEPTTR 1DP (disease control rating) / LV activity at 125.1 g/H SEPTTR 3DC (disease control rating): A: > 80; B: ≤ 80; C: Not Tested; D: No Activity Observed in the Reported Assay; details: for SEPTTR 1DP disease control rating, HV activity / SEPTTR 3DC disease control rating, HV activity: HV application at 100 ppm
# [2] = tested on: Puccinia triticina; assay: Wheat brown rust (PUCCRT) disease control on wheat seedlings; assay type: in vivo; design: key to PUCCRT 3DC, HV activity at 100 ppm (% control rating) / PUCCRT disease control, 3DC / PUCCRT 1DP disease control rating, HV activity / PUCCRT 3DC disease control rating, HV activity / PUCCRT 3DC, LV activity at 125.1 g/H (% Control rating) / PUCCRT 1DP, LV activity at 125.1 g/H (% Control rating) / PUCCRT 3DC disease control rating, LV activity at 125.1 g/H / PUCCRT 1DP disease control rating, LV activity at 125.1 g/H / PUCCRT 3DC disease control rating, HV activity at 100 ppm / PUCCRT 1DP disease control rating, HV activity at 100 ppm / HV activity at 100 ppm PUCCRT 3DC (disease control rating) / LV activity at 125.1 g/H PUCCRT 1DP (disease control rating) / LV activity at 125.1 g/H PUCCRT 3DC (disease control rating): A: > 80; B: ≤ 80; C: Not Tested; D: No Activity Observed in the Reported Assay; details: for PUCCRT 1DP disease control rating, HV activity / PUCCRT 3DC disease control rating, HV activity: HV application at 100 ppm
# [3] = low volume application, 125.1 g/H, 1 Day Protectant
# [4] = low volume application, 125.1 g/H, 3 Day Curative
# [5] = high volume application, 100 ppm, 1 day protectant
# [6] = high volume application, 100 ppm, 3 day curative
# [7] = low volume application, 125.1 g/H, 1 day protectant
# [8] = low volume application, 125.1 g/H, 3 day curative
# [9] = 1 Day Protectant, wheat leaf blotch
# [10] = 3 Day Curative, wheat leaf blotch
# [11] = 1 Day Protectant, wheat brown rust
# [12] = 3 Day Curative, wheat brown rust
Structure (SMILES),"SEPTTR 1DP, LV activity at 125.1 g/H (% Control rating) [1, 3]","SEPTTR 3DC, LV activity at 125.1 g/H (% Control rating) [1, 4]","PUCCRT 1DP, LV activity at 125.1 g/H (% Control rating) [2, 3]","PUCCRT 3DC, LV activity at 125.1 g/H (% Control rating) [2, 4]","SEPTTR 1DP disease control rating, HV activity [1, 9]","SEPTTR 3DC disease control rating, HV activity [1, 10]","PUCCRT 1DP disease control rating, HV activity [2, 11]","PUCCRT 3DC disease control rating, HV activity [2, 12]",further results
COc1ccnc(C(=O)N[C@H](C(=O)O[C@@H](C)[C@H](Oc2ccc3ccccc3c2)C(C)C)C(C)C)c1OCOC(C)=O [Cmpd 633],B (≤ 80),A (> 80),A (> 80),A (> 80),–,–,–,–,–
C=CC[C@@H](Oc1ccc(C(F)(F)F)cc1)[C@H](C)OC(=O)[C@H](C)NC(=O)c1nccc(OC)c1OCOC(C)=O [Cmpd 1077],–,–,–,–,–,–,–,–,"LV activity at 125.1 g/H SEPTTR 1DP (disease control rating) ([1]; low volume application, 125.1 g/H, 1 Day Protectant, wheat leaf blotch): B (≤ 80); LV activity at 125.1 g/H SEPTTR 3DC (disease control rating) ([1]; low volume application, 125.1 g/H, 3 Day Curative, wheat leaf blotch): D; LV activity at 125.1 g/H PUCCRT 1DP (disease control rating) ([2]; low volume application, 125.1 g/H, 1 Day Protectant, wheat brown rust): A (> 80); LV activity at 125.1 g/H PUCCRT 3DC (disease control rating) ([2]; low volume application, 125.1 g/H, 3 Day Curative, wheat brown rust): B (≤ 80)"
COc1ccnc(C(=O)NC(C(=O)OC(C)C(Oc2ccccc2)C(C)C)C(F)(F)F)c1O (mixture of isomers) [Cmpd 1018],–,–,–,–,–,–,–,–,"SEPTTR 1DP disease control rating, HV activity at 100 ppm [1, 5]: A (> 80); SEPTTR 3DC disease control rating, HV activity at 100 ppm [1, 6]: D; PUCCRT 1DP disease control rating, HV activity at 100 ppm [2, 5]: A (> 80); PUCCRT 3DC disease control rating, HV activity at 100 ppm [2, 6]: A (> 80)"
CCC(CC)C(Oc1ccc(Cl)cc1)C(C)OC(=O)C(CC(C)C)NC(=O)c1nccc(OC)c1OCOC(C)=O (stereo not shown) [Cmpd 681],–,–,–,–,–,–,–,–,"SEPTTR 1DP disease control rating, LV activity at 125.1 g/H [1, 7]: D; SEPTTR 3DC disease control rating, LV activity at 125.1 g/H [1, 8]: B (≤ 80); PUCCRT 1DP disease control rating, LV activity at 125.1 g/H [2, 7]: D; PUCCRT 3DC disease control rating, LV activity at 125.1 g/H [2, 8]: D"
COc1ccnc(C(=O)N[C@@H](C)C(=O)O[C@@H](C)COc2ccccc2)c1O [Cmpd 335],–,–,–,–,B (≤ 80),D,A (> 80),A (> 80),–
CC[C@H](NC(=O)c1nccc(OC)c1OC(C)=O)C(=O)O[C@@H](C)[C@H](Oc1cc(F)cc(Cl)c1)c1ccccc1 [Cmpd 644],A (> 80),A (> 80),A (> 80),B (≤ 80),–,–,–,–,–
CCCOC(C(C)C)C(C)OC(=O)C(C)NC(=O)c1nccc(OC)c1O (stereo not shown) [Cmpd 435],–,–,–,–,D,D,B (≤ 80),B (≤ 80),–
COc1ccnc(C(=O)NC(C)C(=O)OC(C)C(Oc2cc(F)ccc2F)C(C)C)c1O (stereo not shown) [Cmpd 392],–,–,–,–,A (> 80),A (> 80),A (> 80),A (> 80),–
COc1ccnc(C(=O)NC(C)C(=O)OC(C)C(Oc2ccccc2)c2ccccc2)c1OCOC(C)=O (stereo not shown) [Cmpd 872],–,–,–,–,–,–,–,–,"SEPTTR 1DP disease control rating, LV activity at 125.1 g/H [1, 7]: A (> 80); SEPTTR 3DC disease control rating, LV activity at 125.1 g/H [1, 8]: A (> 80); PUCCRT 1DP disease control rating, LV activity at 125.1 g/H [2, 7]: A (> 80); PUCCRT 3DC disease control rating, LV activity at 125.1 g/H [2, 8]: A (> 80)"
CCCOC[C@@H](Oc1ccccc1)[C@H](C)OC(=O)[C@H](CC)NC(=O)c1nccc(OC)c1OC(C)=O [Cmpd 484],B (≤ 80),D,B (≤ 80),A (> 80),–,–,–,–,–
